# Data: patent US20130172324A1, “METHOD FOR TREATING CARDIOVASCULAR DISEASES USING RHO KINASE INHIBITOR COMPOUNDS” (priority 2008, published 2013)
# Entries after “also recorded” stand apart in the source; their conditions may differ.
# Legend:
# [1] = test system: ova-sensitized, ova-challenged mice; assay: Prevention of airway hyperreactivity development, anti-inflammatory dosing paradigm (Penh); type: in vivo, mouse; settings: for airway hyperreactivity: intratracheal once a day, days 27 to 30 (1.091) or 27 to 31
# [2] = test system: LPS-challenged mice; assay: LPS-induced neutrophilia and cytokine production assay; type: in vivo, mouse; settings: for IL-1β levels in BALF: intratracheal administration, LPS-challenged mice, FIG. 18
# Protocol: Male BALB/c mice, approximately 19 to 21 grams, were ordered from Charles River Laboratories (Raleigh, N.C.). All animals were challenged with aerosolized LPS (10 μg/ml) for 25 minutes on study day 0. LPS aerosol was generated using an Aerogen Aeroneb nebulizer and controller providing a flow of 400 μl/min and a particle size of 2-4 μm MMAD. Rolipram was administered i.p at 20 mg/kg. […] Four hours following LPS challenge, BALF was collected using a total of 3 ml of 0.9% sodium chloride containing 10% fetal calf serum. Total cell counts were determined using the Coulter Counter. For differential evaluations, BALF was centrifuged and cytospin slides prepared and stained with Hema3 stain. Manual leukocyte counts were then completed on 200 cells. The final concentration of individual leukocyte cell types per ml of BALF was determined by multiplication of the relative percentage of individual leukocytes with the total amount of cells/ml of BALF fluid. The concentration of IL-1β in the BALF samples was determined using commercially available Bio-plex kits (Bio-Rad). The analysis of cytokine levels was measured using the Bio-Plex 200 (Bio-Rad) system according to the manufacturer's instructions.
# [3] = molecular target: T1, ERK1 (Homo sapiens, UniProt P27361); assay: Kinase panel screen (KinaseProfiler), ERK1; type: biochemical; settings: 10 μM ATP
# T1 construct: purchased Upstate, Millipore Bioscience Division (KinaseProfiler service)
# Protocol: (§1) Compounds of Formulae I and II were examined for activity against a selected panel of kinases using the KinaseProfiler™ enzyme profiling services (Upstate, Millipore Bioscience Division). Percent kinase activity at 10 μM and 1 μM test compound and 10 μM ATP was determined against 40 wild-type recombinant human kinases according to Upstate's standard protocol: ASK1, BTK, CSK, c-RAF, GCK, GSK3β, IKKα, IKKβ, IRAK1, IRAK4, JNK1α1, JNK2α2, JNK3, ERK1, ERK2, MAPKAP-K2, MAPKAP-K3, MEK1, MKK4, MKK6, MKK7β, Mnk2, MSK1, PAK3, PDK1, PRAK, ROCK1, Rsk2, SAPK2a, SAPK2b, SAPK3, SAPK4, SRPK1, SRPK2, Syk, TAK1, TBK1, PI3-Kβ, PI3-Kγ, PI3-Kδ.
# [4] = molecular target: T2, ERK2 (Homo sapiens, UniProt P28482); assay: Kinase panel screen (KinaseProfiler), ERK2; type: biochemical; settings: 10 μM ATP
# T2 construct: purchased Upstate, Millipore Bioscience Division (KinaseProfiler service)
# Protocol: as §1
# [5] = test system: rat trachea rings; assay: Tracheal relaxation assay (carbachol precontracted rings); settings: for Percentage of carbachol-induced contraction at 1 μM compound, Avg % / Percentage of carbachol-induced contraction at 10 μM compound, Avg %: 1 μM carbachol; for IC50: Rattus norvegicus, read-out: IC50 Avg; for Trachael Ring Contraction, %: average percentage of carbachol-induced rat tracheal ring contraction at 1 μM of test compound;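 as to all read-outs here: isometric tension of rat tracheal rings in Krebs buffer with 1 µM indomethacin, compounds added cumulatively at 30 min intervals, basal tension subtracted, fit to Hill equation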
# Protocol: The effects of compounds to induce relaxation of pre-contracted rat trachealis were determined. […] Trachea were excised, cleaned of connective tissue and cut into cylindrical segments of 2-3 mm length. Two stainless steel wires were guided through the lumen of the tracheal ring. One wire was fixed in the tissue bath and the other was connected to a force transducer via surgical silk. […] Indomethacin (1 μM), a cyclooxygenase inhibitor, was added to the Krebs buffer and was present throughout the experiments. Contractile tensions were measured using an isometric force transducer (Grass Instruments) and signals were analyzed using specialized software (Chart v5.5, ADInstruments). The preparations were allowed to equilibrate at a resting tension of 0.3 to 0.5 gm prior to two challenges with 60 mM KCl to assess tissue viability. After washing, tissues were treated with 1 μM carbachol for 10 to 15 minutes to induce a contractile response. Test Compounds were added cumulatively to the bath every 30 minutes and reductions in tension were recorded. Basal tension was subtracted from all values and data were reported as a percentage of the maximal carbachol-induced contraction. Data were fit to the Hill equation using GraphPad Prism v5 software.
# [6] = test system: ova-sensitized, ova-challenged mice; assay: Bronchodilator assay in ovalbumin-sensitized mice (Penh, methacholine); type: in vivo, mouse; settings: for log10AUC (penh): bronchodilator dosing paradigm
# Protocol: Male BALB/c mice were ordered from Charles River Laboratories (Raleigh, N.C.). The animals were approximately 19 to 21 grams at time of receipt. Upon arrival, the animals were randomized into groups of five males per cage and assigned to a dosing group. Animals were quarantined for 7 days under test conditions. They were observed daily for general health status and ability to adapt to the water bottles.
# Animals were sensitized on day 0 and 14 of study by an intraperitoneal injection with 20 μg of ovalbumin (ova) and 2.0 mg aluminum hydroxide (alum) which initiates the development of a specific T-helper (Th) cells type 2 resulting in asthmatic animals. One group of animals received an injection of saline to use as non-asthmatic control animals. All animals were challenged with aerosolized 1% ova once daily for 25 minutes on days 28, 29, and 30 (Zosky, et al. Respiratory Research. 2004; 5:15). Aerosol challenge consists of using an Aerogen Aeroneb nebulizer and controller with a particle size of 4-6 μm mass median aerodynamic diameter (MMAD) with a distribution of 400 μl per minute. This aerosol challenge is necessary to target the Th2-driven allergic inflammation in the lower airways.
# The test compounds and the control vehicle were administered to animals on the day of airway hyperreactivity evaluation 30 minutes to 1 hour before the evaluation to determine the bronchodilator effects of the compounds according to the bronchodilator dosing paradigm (FIG. 8). Compounds were administered p.o. (orally), i.p. (intraperitoneally) at 15 μMol/kg unless otherwise noted (Table 6). Alternatively, compounds were administered i.t. (intratracheally) at varying doses as shown (FIG. 9). On day 32 of the experiment, airway hyperreactivity was evaluated by placing conscious, unrestrained animals in a whole body plethysmometer (Buxco Wilmington, N.C.) and exposing them to escalating doses of nebulized methacholine, a known bronchial constrictor which acts through the muscarinic receptors of the lungs, (doses: 0.325-50 mg/ml). Exposure to the methacholine doses consisted of a 3 minute period during which a nebulizer was aerosolizing the methacholine and an additional 3 minute period following the cessation of nebulization. Over this 6 minute period, the plethysmometer monitors and generates numerical values for all parameters of the breath pattern. Enhanced pause (Penh), a unitless index of airway hyperreactivity, is derived from the expiratory side of the respiratory waveform measured via the plethysmograph and is used as an indirect measure of airway resistance and hyperreactivity. […] Following the methacholine dose response, all animals were anesthetized, bled and euthanized.
# Within each experiment, a mouse was given a single compound and exposed to increasing doses of methacholine [0 (baseline), 0.375, 0.75, 1.5, 3, 6, 12, 25, 50 mg/ml]. The Penh value at each of the dose levels of methacholine represents the 6-minute average response. Change from baseline (CFB) in Penh was calculated at each methacholine dose and the area under the curve (AUC) for these CFB values was calculated using the trapezoidal rule. This same approach was applied for each mouse across multiple experiments.
# For statistical analyses, a linear mixed-effects model where the response was the log 10 transformed value of AUC described above was used. Data from equal experimental conditions across experiments performed on different days were pooled for statistical analysis and data reporting. The various compounds were compared adjusting for the log 10-transformed baseline value of Penh and the chamber (1 of 10) of the plethysmometer each mouse was contained in during an experiment. A random intercept for each experiment was assumed to account for possible similarities of the results obtained from a given experiment (i.e., as a “blocking effect”). […] Computations were performed using PROC MIXED (SAS Version 9.1). […]
# [7] = test system: ova-sensitized, ova-challenged mice; assay: In vivo anti-inflammatory assay in ovalbumin-sensitized mice (BALF eosinophils and cytokines); set-up: species or system mouse
# Source text: A mouse model of asthma via ovalbumin sensitization was created as described in Example 23. The anti-inflammatory dosing paradigm (FIG. 10) was utilized to evaluate the anti-inflammatory effects of experimental compounds. The anti-inflammatory dosing paradigm consists of dosing the animals once a day starting on day 27 and finishing on either day 30 or 31 (1 hr prior to the aerosolized ovalbumin challenges on days 28 to 30) but not on day 32 when hyperreactivity evaluation occurs.
# Bronchoalveolar lavage fluid (BALF) was collected by infusing 3.0 ml of saline with 10% fetal calf serum into the lungs via the trachea and then withdrawing the fluid. The total amount of cells/ml of BALF fluid was determined via manual cell count on hemocytometer. The BALF was centrifuged, supernatant removed and analyzed for cytokine concentrations as described below, and cell pellet reconstituted in 500 μL of fluid. Cytospin slides were prepared from the cell pellet using 100 μL of fluid and spinning samples for 5 minutes at 5000 rpms in a cytospin centrifuge. Following Hema3 stain, relative percentages of individual leukocytes were determined on a 200 cell count for each sample. The final concentration of individual leukocyte cell types per ml of BALF was determined by multiplication of the relative percentage of individual leukocytes with the total amount of cells/ml of BALF fluid.
# The concentrations of cytokines in the BALF samples were determined using commercially available Bio-plex kits (Bio-Rad) for the detection of mouse IL-5, IL-13, and Eotaxin. The analysis of cytokine levels was measured using the Bio-Plex 200 (Bio-Rad) system according to the manufacturer's instructions.
# [8] = Rat oral pharmacokinetics (plasma); type: in vivo
# Protocol: Plasma (EDTA K2 anticoagulant) was collected from male, cannulated, CD Sprague Dawley rats to determine the pharmacokinetics of formulations containing compound inhibitors of Rho kinase. Each animal was dosed orally with a 4 ml/kg solution or suspension of each test compound in 10 mM acetate buffered saline, pH 4.5 at a final concentration range of 20-30 μmol/kg. Blood was collected at 0.25, 0.5, 1, 2, 4, 6, 8, and 24 hours. Plasma samples were assayed for the concentration of the test compound using an on-line, solid phase extraction LC/MS/MS analysis system.
# Samples were analyzed on a QSTAR Elite, hybrid quadrupole time-of-flight mass spectrometer (Applied Biosystems, Framingham, Mass.) coupled with a Symbiosis Pharma integrated, on-line SPE-HPLC system (Spark Holland Inc., Plainsboro, N.J.). Analyst QS 2.0 software was used for instrument control, data acquisition and processing. […] Mobile Phase A consisted of 0.1% ammonium hydroxide in water and Mobile Phase B consisted of 0.1% formic acid in acetonitrile. Pharmacokinetic analyses were performed using WinNonlin software version 5.2 (Pharsight Corporation, Mountain View, Calif.).
# As determined from the plasma concentration versus time curves, the time to peak and peak exposure are represented by the values Tmax and Cmax, respectively. The AUC values (nM*hr) shown were calculated as the areas under the plasma concentration versus time curves from time zero through the time of the last observable value and represent the total exposure of the compound over the course of the study. Half-life values or the amount of time required for the plasma levels of the compound to decline to half the initial value are represented as t1/2.
# [9] = test system: rat tracheal rings pretreated with vehicle or IL-1β and TNF-α; assay: Effect of inflammatory cytokines on tracheal relaxation; settings: FIG. 7
# Protocol: Male Sprague-Dawley rats weighing 301-325 gm were sacrificed by asphyxiation in a CO2 chamber. Trachea were excised, cleaned of connective tissue and cut into cylindrical segments of 2-3 mm length. Tissues were treated for 18 hours at 37° C. in F12 media with penicillin-streptomycin and 0.1% BSA alone or with 10 ng/ml IL-1β and 100 ng/ml TNF-α. Tissues were then washed free of cytokines with Krebs buffer. Contractile tensions were measured using an isometric force transducer (Grass Instruments) as described for Example 3 and signals were analyzed using specialized software (Chart v5.5, ADInstruments). Tissues were treated with 300 nM carbachol for 10 to 15 minutes to induce a contractile response. Test Compounds were added cumulatively to the bath every 30 minutes and reductions in tension were recorded. Basal tension was subtracted from all values and data were reported as a percentage of the maximal carbachol-induced contraction. Data were fit to the Hill equation using GraphPad Prism v5 software.
# [10] = rat, oral, 20-30 μmol/kg, plasma, mean of n = 3
# T2 sequence (P28482 whole entry): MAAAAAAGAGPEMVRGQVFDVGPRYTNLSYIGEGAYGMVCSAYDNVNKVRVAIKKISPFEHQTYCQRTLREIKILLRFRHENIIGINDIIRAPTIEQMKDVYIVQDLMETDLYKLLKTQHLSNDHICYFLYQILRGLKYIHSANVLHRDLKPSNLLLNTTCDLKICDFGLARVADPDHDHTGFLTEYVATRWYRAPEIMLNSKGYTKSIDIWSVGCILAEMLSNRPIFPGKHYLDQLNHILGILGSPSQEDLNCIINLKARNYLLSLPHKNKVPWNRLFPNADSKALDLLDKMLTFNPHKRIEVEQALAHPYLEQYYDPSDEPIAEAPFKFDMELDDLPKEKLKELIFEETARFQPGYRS
# T1 sequence (P27361 whole entry): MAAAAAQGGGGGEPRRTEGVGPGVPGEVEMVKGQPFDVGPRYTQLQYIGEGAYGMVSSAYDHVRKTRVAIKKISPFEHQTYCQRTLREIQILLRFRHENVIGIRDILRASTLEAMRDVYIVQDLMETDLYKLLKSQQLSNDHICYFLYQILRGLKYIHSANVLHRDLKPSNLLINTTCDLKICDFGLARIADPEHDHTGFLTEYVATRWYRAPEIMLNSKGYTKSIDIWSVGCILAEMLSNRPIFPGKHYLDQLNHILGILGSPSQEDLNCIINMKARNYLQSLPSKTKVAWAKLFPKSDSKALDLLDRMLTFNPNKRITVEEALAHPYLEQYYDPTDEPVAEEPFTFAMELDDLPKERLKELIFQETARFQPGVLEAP
SMILES,airway hyperreactivity [1],IL-1β levels in BALF [2],"Percent inhibition, ERK1 ([3]; 1 μM test compound) [%]","Percent inhibition, ERK1 ([3]; 10 μM test compound) [%]","Percent inhibition, ERK2 ([4]; 1 μM test compound) [%]","Percent inhibition, ERK2 ([4]; 10 μM test compound) [%]","Percentage of carbachol-induced contraction at 1 μM compound, Avg % [5] [%]","Percentage of carbachol-induced contraction at 10 μM compound, Avg % [5] [%]",IC50 [5] [µM],"Trachael Ring Contraction, % [5] [%]",log10AUC (penh) ([6]; 15 μmol/kg oral),reduction in airway hyperresponsiveness ([6]; oral doses),further results
"NC(=O)Cn1ccc2cc(CN3CC[C@@H](Nc4cccc5cnccc45)C3)ccc21 [Compound 2.059, (R)-2-(5-((3-(isoquinolin-5-ylamino)pyrrolidin-1-yl)methyl)-1H-indol-1-yl)acetamide]",prevention of airway hyperreactivity,reduction,37,4,56,12,,,,,,,
"OCCn1ccc2cc(CN3CC[C@@H](Nc4cccc5cnccc45)C3)ccc21 [Compound 2.066, (R)-2-(5-((3-(isoquinolin-5-ylamino)pyrrolidin-1-yl)methyl)-1H-indol-1-yl)ethanol]",prevention of airway hyperreactivity,,52,15,50,12,,,,,,,
"c1cc2cc(CN3CCC[C@@H](Nc4ccc5[nH]ncc5c4)C3)ccc2o1 [Compound 1.131, (R)-N-(1-(benzofuran-5-ylmethyl)piperidin-3-yl)-1H-indazol-5-amine]",,,,,,,37.4,14.2,0.243,37,2.0283,statistically significant reduction,"eosinophils per ml of BALF (airway eosinophil infiltration) ([7]; dosed orally to day 31, anti-inflammatory dosing paradigm, FIG. 11): reduced; airway hyperreactivity to methacholine ([1]; oral 15 μMol/kg once a day during days 27 to 31, methacholine on Day 32): prevention of airway hyperreactivity; plasma and lung tissue concentrations after oral dosing ([8]; oral dosing, refers to Table 13 and Table 15): high plasma and lung tissue concentrations"
"CS(=O)(=O)Nc1cccc(CN2CCC[C@H](Nc3ccc4[nH]ncc4c3)C2)c1 [Compound 1.091, (S)-N-(3-((3-(1H-indazol-5-ylamino)piperidin-1-yl)methyl)phenyl)methanesulfonamide]",,reduction,,,,,35.4,14.3,0.103,35,2.2309,did not yield a significant reduction,"relaxation of tracheal rings, cytokine-pretreated tissues ([9]; 10 ng/ml IL-1β and 100 ng/ml TNF-α for 18 hours, 300 nM carbachol): fully efficacious; relaxation of tracheal rings, vehicle-pretreated tissues ([9]; 300 nM carbachol): fully efficacious; potency in cytokine-pretreated versus vehicle-pretreated tissues [9]: slightly more potent in cytokine-pretreated tissues; log10AUC (penh) ([6]; 5 μmol/kg intratracheal): 1.8127; log10AUC (penh) ([6]; 15 μmol/kg intraperitoneal): 2.0096; reduction in airway hyperresponsiveness ([6]; i.p. route, compared to oral dosing): enhanced reduction; bronchodilatory response ([6]; intratracheal administration): robust bronchodilatory response; eosinophils in BALF ([7]; dosed i.t. to day 30, anti-inflammatory dosing paradigm, FIG. 12): reduction of eosinophils; LPS-induced pulmonary neutrophilia influx ([2]; intratracheal dosing one hour prior to LPS challenge, FIG. 17): significant reduction; also recorded: dose-dependent inhibition; oral bioavailability ([8]; oral dosing): poor oral bioavailability; AUC (0-last) [8, 10]: BLQ; Cmax [8, 10]: BLQ; Tmax [8, 10]: BLQ; Vz_F [8, 10]: BLQ; t½ [8, 10]: BLQ"
